Among the data in patent publication US20140357662A1, “THIENO (2,3 - C) PYRAZOLES FOR USE AS POTASSIUM CHANNEL INHIBITORS” (XENTION LIMITED, priority 2011, published 2014) are IC50 values, retold here.

The structures appear in SMILES notation. Bounds are passed on as bounds.

The assay concerns the target T1, rat Kir3.1/3.4 (Rattus norvegicus, UniProt P48548+P63251).
T1 construct: expressed in transfected cells; host or cells: HEK293 (Human Embryonic Kidney 293), stably transfected
T1 sequence (P63251 1-501): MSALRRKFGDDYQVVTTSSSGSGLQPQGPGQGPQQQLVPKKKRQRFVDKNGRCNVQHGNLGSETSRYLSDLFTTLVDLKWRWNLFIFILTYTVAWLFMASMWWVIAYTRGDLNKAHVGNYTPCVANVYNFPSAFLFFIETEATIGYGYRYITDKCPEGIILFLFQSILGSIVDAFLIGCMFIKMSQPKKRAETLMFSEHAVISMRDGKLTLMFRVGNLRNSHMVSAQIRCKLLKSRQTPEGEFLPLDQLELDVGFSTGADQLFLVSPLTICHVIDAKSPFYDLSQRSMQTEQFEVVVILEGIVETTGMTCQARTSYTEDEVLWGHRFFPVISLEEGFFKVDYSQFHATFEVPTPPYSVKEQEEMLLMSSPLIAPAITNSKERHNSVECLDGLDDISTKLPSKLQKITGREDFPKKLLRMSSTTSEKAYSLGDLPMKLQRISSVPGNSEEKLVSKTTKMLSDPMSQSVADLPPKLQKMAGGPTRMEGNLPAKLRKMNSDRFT
T1 sequence (P48548 1-419): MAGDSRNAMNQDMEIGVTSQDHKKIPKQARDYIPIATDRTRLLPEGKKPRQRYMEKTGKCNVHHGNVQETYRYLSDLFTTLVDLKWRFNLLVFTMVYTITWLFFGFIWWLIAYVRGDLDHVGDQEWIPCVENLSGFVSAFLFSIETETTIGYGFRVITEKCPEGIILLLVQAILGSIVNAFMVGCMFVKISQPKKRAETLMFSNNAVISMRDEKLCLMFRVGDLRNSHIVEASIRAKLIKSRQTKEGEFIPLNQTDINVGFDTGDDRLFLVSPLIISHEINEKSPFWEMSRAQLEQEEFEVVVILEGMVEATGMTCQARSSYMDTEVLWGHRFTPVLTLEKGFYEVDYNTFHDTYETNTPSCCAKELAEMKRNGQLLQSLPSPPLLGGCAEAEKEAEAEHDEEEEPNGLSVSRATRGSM
The assay is described as follows: Kir3.1/3.4 Electrophysiology Method (manual whole-cell patch clamp). Type of assay: cell-based. The note with it: Human Embryonic Kidney 293 stably transfected with rat Kir3.1/3.4; inhibition of leak-subtracted current at -140 mV. The procedure:
Compound activity against the recombinant G-protein activated inward rectifier current encoded by the heterotetramer Kir3.1/3.4 was assessed using manual whole-cell patch technique. The heterotetramer forms the pore-forming channel that conducts the acetylcholine/adenosine-activated potassium current in the heart.
For whole-cell patch-clamp studies, cells (Human Embryonic Kidney 293 stably transfected with rat Kir3.1/3.4) were seeded onto glass coverslips before recordings were made. Cells were seeded in sterile 30 mm Petri dishes at a density to enable isolated cells to be selected for patch clamp experiments. The dishes were stored in a humidified, gassed (5% CO2) incubator at 37° C. until use.
Whole-cell patch-clamp recordings of membrane currents were made following gigaohm seal formation between the patch electrode and the cell using HEKA EPC-9/10 amplifiers controlled by Pulse Software (Ver8.5x/8.6x/8.7x, HEKA, Germany). Coverslips seeded with cells were placed in a recording chamber mounted on the stage of an inverted microscope. During the experiment, the cell of interest was continuously superfused with bather solution delivered via a cannula placed in close proximity to the cell to enable control of the extracellular solution environment. Only those cells with a current <−500 pA (current at −140 mV) were used for experiments. During experiments, series resistance was compensated by a minimum of 70%.
Electrophysiology voltage-step protocols and analysis of data were performed as follows. Data was sampled at 5 kHz, and filtered with a −3 dB bandwidth of 2.5 kHz. Cells were held at a voltage of −60 mV. Currents were evoked by a depolarising voltage step to +60 mV (100 ms) before a ramp-repolarisation (0.4 V·s^−1) to −140 mV (100 ms) before returning to −60 mV. The command waveform was repeatedly applied every 10 s throughout the experiment. Mean currents during 1-99% of the time at −140 mV were analysed using Pulsefit software (v8.x, HEKA, Germany). The voltage protocol was repeatedly applied to achieve a stable current baseline in bather before the test substance was superfused via the cannula in close proximity to the cell under investigation. The test substance was allowed to equilibrate during which time voltage protocol was repeatedly applied and recorded. On reaching steady-state inhibition, the cell was superfused with an identical bather solution containing zero external potassium chloride (replaced by equimolar NaCl). The identical current measurement was made in the absence of potassium to assess the passive leak at −140 mV. The leak current was subtracted from the control and steady-state drug current values. The percentage inhibition of the leak-subtracted current in the presence of test substance was calculated relative to the control leak-subtracted pre-drug value. Internal patch-pipette solution contained in mM: 110 KCl, 20 NaCl, 0.9 GTPγS, 5 Mg-ATP, 5 EGTA, 10 HEPES, pH7.2 corrected with KOH. The external superfusate composition in mM was: 150 (or 160) NaCl, 10 (or 0) KCl, 3 CaCl2, 1 MgCl, 10 HEPES, pH 7.4 corrected with NaOH.
For the compound `CC(=O)n1nc(N2CC3CC2CC3OCCN2CCCC2)c2c(-c3ccc(F)cc3)csc21` (centres unmarked) [Compound 15, 1-[4-(4-fluorophenyl)-3-[5-(2-pyrrolidin-1-ylethoxy)-2-azabicyclo[2.2.1]heptan-2-yl]thieno[2,3-c]pyrazol-1-yl]ethanone], the IC50 is less than 0.5 µM. The compound `c1ccc(-c2csc3[nH]nc(N4C5CCC4CC(N4CCC4)C5)c23)cc1` (centres unmarked) [Compound 11, 3-[3-(azetidin-1-yl)-8-azabicyclo[3.2.1]octan-8-yl]-4-phenyl-1H-thieno[2,3-c]pyrazole] returned an IC50 of 0.5 to 3 µM.

On to `CC(=O)n1nc(N2CCCC(COCCN3CCCC3)C2)c2c(-c3ccccc3)csc21` (centres unmarked) [Compound 18, 1-[4-phenyl-3-[3-(2-pyrrolidin-1-ylethoxymethyl)-1-piperidyl]thieno[2,3-c]pyrazol-1-yl]ethanone], for which the half-maximal inhibitory concentration (IC50) was less than 0.5 µM. As to `N#Cc1sc2[nH]nc(N3CCC(COCCN4CCCC4)CC3)c2c1-c1ccccc1` [Compound 3, 4-phenyl-3-[4-(2-pyrrolidin-1-ylethoxymethyl)-1-piperidyl]-1H-thieno[2,3-c]pyrazole-5-carbonitrile], the IC50 is less than 0.5 µM. The result for `CN(C)C(=O)c1sc2c(c(N3CCC(COCCN4CCCC4)CC3)nn2C)c1-c1ccccc1` [Compound 22, N,N,1-trimethyl-4-phenyl-3-[4-(2-pyrrolidin-1-ylethoxymethyl)-1-piperidyl]thieno[2,3-c]pyrazole-5-carboxamide] reads 0.5 to 3 µM; that for `Fc1ccc(-c2csc3[nH]nc(N4CC5CC4CC5OCCN4CCCC4)c23)cc1` (centres unmarked) [Compound 5, 4-(4-fluorophenyl)-3-[5-(2-pyrrolidin-1-ylethoxy)-2-azabicyclo[2.2.1]heptan-2-yl]-1H-thieno[2,3-c]pyrazole], less than 0.5 µM; that for `c1ccc(-c2csc3[nH]nc(N4CCCC(COCCN5CCCC5)C4)c23)cc1` (centres unmarked) [Compound 8, 4-phenyl-3-[3-(2-pyrrolidin-1-ylethoxymethyl)-1-piperidyl]-1H-thieno[2,3-c]pyrazole], less than 0.5 µM.

`CS(=O)(=O)n1nc(N2CC3CC2CC3OCCN2CCCC2)c2c(-c3ccc(F)cc3)csc21` (centres unmarked) [Compound 16, 4-(4-fluorophenyl)-1-methylsulfonyl-3-[5-(2-pyrrolidin-1-ylethoxy)-2-azabicyclo[2.2.1]heptan-2-yl]thieno[2,3-c]pyrazole] returned an IC50 of less than 0.5 µM. Next, `Brc1sc2[nH]nc(N3CC4CC3CC4OCCN3CCCC3)c2c1-c1ccccc1` (centres unmarked) [Compound 2, 5-bromo-4-phenyl-3-[5-(2-pyrrolidin-1-ylethoxy)-2-azabicyclo[2.2.1]heptan-2-yl]-1H-thieno[2,3-c]pyrazole]: less than 0.5 µM; `c1ccc(-c2csc3[nH]nc(N4CCC(COCCN5CCCC5)CC4)c23)cc1` [Compound 1, 4-phenyl-3-[4-(2-pyrrolidin-1-ylethoxymethyl)-1-piperidyl]-1H-thieno[2,3-c]pyrazole]: less than 0.5 µM. For `c1ccc(-c2csc3[nH]nc(N4C5CCC4CC(COCCN4CCCC4)C5)c23)cc1` (centres unmarked) [Compound 6, 4-phenyl-3-[3-(2-pyrrolidin-1-ylethoxymethyl)-8-azabicyclo[3.2.1]octan-8-yl]-1H-thieno[2,3-c]pyrazole], the IC50 is less than 0.5 µM.
